Like-named read-outs stand apart in the source and are kept apart here. Blank lines part the entries; values can stand above or below the compound they belong to.
Experiments:
OVCAR8 = assay: Activity against cancer cell lines; assay type: cell-based
Text: (§1) Exemplary data is shown below.

RXF393 = assay: Activity against cancer cell lines; assay type: cell-based; conditions: Homo sapiens, RXF 393
Text: as §1

UO31 = assay: Activity against cancer cell lines; assay type: cell-based; conditions: Homo sapiens, UO-31
Text: as §1

ADRRES = assay: Activity against cancer cell lines; assay type: cell-based
Text: as §1

HL60 = assay: Activity against cancer cell lines; assay type: cell-based
Text: as §1

HCT15 = assay: Activity against cancer cell lines; assay type: cell-based; conditions: Homo sapiens, HCT-15
Text: as §1

CAKI1 = assay: Activity against cancer cell lines; assay type: cell-based; conditions: Homo sapiens, CAKI-1
Text: as §1

ACHN = assay: Activity against cancer cell lines; assay type: cell-based; conditions: Homo sapiens
Text: as §1

SNB75 = assay: Activity against cancer cell lines; assay type: cell-based
Text: as §1

A498 = assay: Activity against cancer cell lines; assay type: cell-based; conditions: Homo sapiens
Text: as §1

OVCAR4 = assay: Activity against cancer cell lines; assay type: cell-based
Text: as §1

NCIH522 = assay: Activity against cancer cell lines; assay type: cell-based; conditions: Homo sapiens, NCI-H522
Text: as §1

SF295 = assay: Activity against cancer cell lines; assay type: cell-based; conditions: Homo sapiens, SF-295
Text: as §1

SF539 = assay: Activity against cancer cell lines; assay type: cell-based; conditions: Homo sapiens, SF-539
Text: as §1

MOLT4 = assay: Activity against cancer cell lines; assay type: cell-based; conditions: Homo sapiens, MOLT-4
Text: as §1

M14 = assay: Activity against cancer cell lines; assay type: cell-based; conditions: Homo sapiens
Text: as §1

MCF7 = assay: Activity against cancer cell lines; assay type: cell-based; conditions: Homo sapiens
Text: as §1

LOXIMVI = assay: Activity against cancer cell lines; assay type: cell-based; conditions: Homo sapiens, LOX IMVI
Text: as §1

MDAMB435 = assay: Activity against cancer cell lines; assay type: cell-based; conditions: Homo sapiens, MDA-MB-435
Text: as §1

SKMEL5 = assay: Activity against cancer cell lines; assay type: cell-based; conditions: Homo sapiens, SK-MEL-5
Text: as §1

SKMEL2 = assay: Activity against cancer cell lines; assay type: cell-based; conditions: Homo sapiens, SK-MEL-2
Text: as §1

MAP4K4 = MAP4K4 (Homo sapiens, UniProt O95819); assay: MAP4K4 kinase assay (in-house); assay type: biochemical
Text: Signaling pathways mediating anticancer activity. […] We established the MAP4K4 kinase assay in-house and confirmed that the compounds are indeed potent MAP4K4 inhibitors.

[1] = Metabolic stability in liver microsomes; assay type: in vitro ADME; conditions: NADPH, 10 μM
Experimental: The compounds are experimentally predicted to have a longer half-life in humans. We conducted metabolic stability studies in human and mouse liver microsomes. Metabolic stability in pooled human or mouse liver microsomes, in the presence of NADPH, was measured with 10 μM compound over 60 min.

LNCaP = assay: Prostate cancer cell proliferation assay; assay type: cell-based; conditions: Homo sapiens, 72 hours, read-out: IC50 against prostate cancer cell lines
Text: (§2) The dose-response curves of cell growth inhibition were consistent.
(§3) Cell proliferation assays.

PC-3 = assay: Prostate cancer cell proliferation assay; assay type: cell-based; conditions: Homo sapiens; PC-3, 72 hours; read-out: IC50 against prostate cancer cell lines
Text: as §2, §3

DU-145 = assay: Prostate cancer cell proliferation assay; assay type: cell-based; conditions: Homo sapiens; DU-145, 72 hours; read-out: IC50 against prostate cancer cell lines
Text: as §2, §3

[2] = system: caspase-3 and -7 activities; assay: Caspase-Glo 3/7 apoptosis assay; assay type: cell-based; conditions: 20 nM
Text: Efficacy-related endpoints. We conducted an in-depth mechanism of action study in androgen-sensitive (LNCaP) and -insensitive (PC-3 and DU-145) prostate cancer cell lines.
Apoptosis assay. The Caspase-Glo® 3/7 Assay (Promega), a homogeneous, luminescent assay that measures caspase-3 and -7 activities, was used to access apoptosis induction.

[3] = In vivo pharmacokinetic study, oral formulations; conditions: mouse, plasma, 60 mg/kg, mice
Experimental: In vivo pharmacokinetic (PK) studies; oral bioavailability. We conducted pre-formulation studies and selected different oral formulations for mice PK studies to explore the effect of formulation on drug absorption.
The PK profiles of representative compounds (60 mg/kg) were determined in different oral formulations (HPC and PTTW) with groups of three mice per time point.

T47D = assay: Breast cancer cell line growth inhibition; assay type: cell-based; conditions: Homo sapiens, ER (+), read-out: IC50 against breast cancer cell lines
Text: (§4) Generally, their potency is positively correlated with MAP4K4 expression in cancer cell lines.

BT549 = assay: Breast cancer cell line growth inhibition; assay type: cell-based; conditions: Homo sapiens, BT-549; BT549, triple negative; read-out: IC50 against breast cancer cell lines
Text: as §4

HS578T = assay: Breast cancer cell line growth inhibition; assay type: cell-based; conditions: Homo sapiens, Hs-578T, triple negative, read-out: IC50 against breast cancer cell lines
Text: as §4

MCF-7 = assay: Breast cancer cell line growth inhibition; assay type: cell-based; conditions: Homo sapiens, MCF7; MCF-7, ER (+); read-out: IC50 against breast cancer cell lines
Text: as §4

MDA-MB-231 = assay: Breast cancer cell line growth inhibition; assay type: cell-based; conditions: Homo sapiens; MDA-MB-231, triple negative; read-out: IC50 against breast cancer cell lines
Text: as §4

CCRFCEM = assay: Activity against cancer cell lines; assay type: cell-based
Text: as §1

MAP4K4, sequence (O95819 whole entry): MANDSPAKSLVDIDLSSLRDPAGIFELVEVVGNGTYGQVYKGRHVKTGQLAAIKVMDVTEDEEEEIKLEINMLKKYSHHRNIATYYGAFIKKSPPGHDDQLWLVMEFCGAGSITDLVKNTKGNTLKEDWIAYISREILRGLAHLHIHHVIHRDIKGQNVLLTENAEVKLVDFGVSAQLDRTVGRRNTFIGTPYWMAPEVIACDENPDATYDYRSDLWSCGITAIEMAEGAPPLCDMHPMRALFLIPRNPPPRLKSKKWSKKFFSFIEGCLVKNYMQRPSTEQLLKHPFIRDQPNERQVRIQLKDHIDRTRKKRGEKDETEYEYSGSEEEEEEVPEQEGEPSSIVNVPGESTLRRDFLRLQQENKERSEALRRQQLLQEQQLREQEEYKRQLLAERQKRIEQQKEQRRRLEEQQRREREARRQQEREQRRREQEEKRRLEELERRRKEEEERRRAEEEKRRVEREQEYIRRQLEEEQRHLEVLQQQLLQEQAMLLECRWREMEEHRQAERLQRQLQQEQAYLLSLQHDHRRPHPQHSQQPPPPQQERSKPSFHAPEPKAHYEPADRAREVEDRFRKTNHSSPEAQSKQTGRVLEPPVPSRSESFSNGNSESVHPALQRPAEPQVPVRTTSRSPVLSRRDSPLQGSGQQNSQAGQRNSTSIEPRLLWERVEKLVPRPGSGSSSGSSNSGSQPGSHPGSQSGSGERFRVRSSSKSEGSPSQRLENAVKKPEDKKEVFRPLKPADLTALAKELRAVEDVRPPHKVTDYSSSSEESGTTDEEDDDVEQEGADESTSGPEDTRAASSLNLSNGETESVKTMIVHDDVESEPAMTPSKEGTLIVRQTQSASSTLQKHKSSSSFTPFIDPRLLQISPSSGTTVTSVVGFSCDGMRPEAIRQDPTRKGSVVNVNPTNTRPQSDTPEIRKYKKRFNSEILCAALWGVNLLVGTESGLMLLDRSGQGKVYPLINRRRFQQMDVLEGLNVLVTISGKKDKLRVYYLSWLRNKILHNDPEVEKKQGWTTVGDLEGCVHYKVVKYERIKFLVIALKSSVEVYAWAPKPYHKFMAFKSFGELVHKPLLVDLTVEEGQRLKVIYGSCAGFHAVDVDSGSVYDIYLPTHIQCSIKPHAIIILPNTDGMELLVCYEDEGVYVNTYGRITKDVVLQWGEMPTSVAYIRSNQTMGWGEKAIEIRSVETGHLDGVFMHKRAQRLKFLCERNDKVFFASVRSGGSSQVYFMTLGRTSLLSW

IC50 (OVCAR8; Homo sapiens, OVCAR-8, OVCAR8): 0.067 µM | IC50 (OVCAR8; OVCAR8): 0.053 µM | IC50 (RXF393): 0.038 µM | IC50 (UO31): 0.066 µM | IC50 (ADRRES): 0.027 µM | IC50 (HL60; HL60): 0.024 µM | IC50 (HL60; Homo sapiens, HL-60, HL60): 0.035 µM | IC50 (HCT15): 0.027 µM | IC50 (CAKI1): 0.023 µM | IC50 (ACHN): 0.0057 µM | IC50 (SNB75; Homo sapiens, SNB-75, SNB75): 0.042 µM | IC50 (SNB75; SNB75): 0.034 µM | IC50 (A498): 0.052 µM | IC50 (OVCAR4; Homo sapiens, OVCAR-4, OVCAR4): 0.09 µM | IC50 (OVCAR4; OVCAR4): 0.056 µM | IC50 (NCIH522): 0.032 µM | IC50 (SF295): 0.054 µM | IC50 (SF539): 0.039 µM | IC50 (MOLT4): 0.053 µM | IC50 (M14): 0.038 µM | IC50 (MCF7): 0.059 µM | IC50 (LOXIMVI): 0.014 µM | IC50 (MDAMB435): 0.021 µM | IC50 (SKMEL5): 0.033 µM | IC50 (SKMEL2): 0.063 µM | IC50 (MAP4K4): 0.16 µM
Structure (SMILES): COc1ccc2[nH]c(C(=O)c3ccc4[nH]ccc4c3)cc2c1 [Cmpd 1, (1H-indol-5-yl)(5-methoxy-1H-indol-2-yl)methanone]

% of Parent Compound Remaining vs T = 0 min ([1]; human liver microsomes, 15 min): 72.9% | % of Parent Compound Remaining vs T = 0 min ([1]; human liver microsomes, 30 min): 63.1% | % of Parent Compound Remaining vs T = 0 min ([1]; human liver microsomes, 60 min): 53.0% | % of Parent Compound Remaining vs T = 0 min ([1]; mouse liver microsomes, 15 min): 31.6% | % of Parent Compound Remaining vs T = 0 min ([1]; mouse liver microsomes, 30 min): 9.9% | % of Parent Compound Remaining vs T = 0 min ([1]; mouse liver microsomes, 60 min): 1.0% | IC50 (LNCaP): 0.016 µM | IC50 (PC-3): 0.011 µM | IC50 (DU-145): 0.023 µM | IC50 (MAP4K4): 0.14 µM | concentration at 0.5 h ([3]; oral 60 mg/kg in 0.5% HPC): 319 ± 106 ng/mL | concentration at 4 h ([3]; oral 60 mg/kg in 0.5% HPC): 33 ± 21 ng/mL | concentration at 8 h ([3]; oral 60 mg/kg in 0.5% HPC): 34.7 ± 18.8 ng/mL | concentration at 24 h ([3]; oral 60 mg/kg in 0.5% HPC): 1.3 ± 2.3 ng/mL | concentration at 0.5 h ([3]; oral 60 mg/kg in PTTW): 798 ± 204 ng/mL | concentration at 4 h ([3]; oral 60 mg/kg in PTTW): 75.5 ± 19.3 ng/mL | concentration at 8 h ([3]; oral 60 mg/kg in PTTW): 21.7 ± 11.1 ng/mL | concentration at 24 h ([3]; oral 60 mg/kg in PTTW): 15.4 ± 7.2 ng/mL | IC50 (T47D): 0.029 µM | IC50 (BT549): 0.012 µM | IC50 (HS578T): 0.013 µM | IC50 (MCF-7): 0.083 µM | IC50 (MDA-MB-231): 0.014 µM
Structure (SMILES): COc1ccc2[nH]c(C(=O)c3ccc4[nH]nc(C)c4c3)cc2c1 [Cmpd 18, (5-methoxy-1H-indol-2-yl)(3-methyl-1H-indazol-5-yl)methanone]
apoptosis induction ([2]; 24 hours treatment): significantly induced apoptosis | apoptosis induction ([2]; 48 hours treatment): more profound apoptotic effect

IC50 (RXF393): 1 µM | IC50 (UO31): 2.5 µM | IC50 (CCRFCEM): 0.087 µM | IC50 (CCRFCEM; Homo sapiens, CCRF-CEM): 0.047 µM | IC50 (ADRRES): 11 µM | IC50 (HL60; HL60): 0.13 µM | IC50 (HL60; Homo sapiens, HL-60, HL60): 0.15 µM | IC50 (HCT15): 1.3 µM | IC50 (CAKI1): 0.18 µM | IC50 (ACHN): 0.54 µM | IC50 (SNB75; Homo sapiens, SNB-75, SNB75): 0.61 µM | IC50 (SNB75; SNB75): 0.58 µM | IC50 (A498): 0.65 µM | IC50 (OVCAR4; Homo sapiens, OVCAR-4, OVCAR4): 1.9 µM | IC50 (OVCAR4; OVCAR4): 1.5 µM | IC50 (NCIH522): 0.5 µM | IC50 (SF295): 0.43 µM | IC50 (SF539): 0.39 µM | IC50 (MOLT4): 0.075 µM | IC50 (M14): 0.81 µM | IC50 (MCF7): 0.41 µM | IC50 (LOXIMVI): 0.26 µM | IC50 (MDAMB435): 0.97 µM | IC50 (SKMEL5): 0.39 µM | IC50 (SKMEL2): 0.68 µM
Structure (SMILES): COc1cccc2c1C(=O)c1c(O)c3c(c(O)c1C2=O)C[C@@](O)(C(=O)CO)C[C@@H]3O[C@H]1C[C@H](N)[C@H](O)[C@H](C)O1 [Doxorubicin, reference compound]

From patent US10000451B2, “MAP4K4 (HGK) inhibitors” (SRI INTERNATIONAL, priority 2015, dated 2018)
